Test [1] has as its system bortezomib resistant PSMB5 mutant cell lines. In words: XTT cell viability assay of bortezomib resistant PSMB5 mutant clones (AN3-12 mouse haploid embryonic stem cells) treated with proteasome inhibitors. It counts as cell-based. On the procedure: AN3-12 mouse haploid embryonic stem cells were cultured as previously described (Elling et al., 2011). In brief, the cells were grown in DMEM high glucose (Sigma-Aldrich, St. Louis, Mo.) supplemented with 15% fetal bovine serum, penicillin/streptomycin, glutamine, non-essential amino acids, sodium pyruvate (all Thermo Fisher Scientific, Waltham, Mass.), β-mercaptoethanol, and Leukemia-Inhibitor Factor (LIF) (both Merck Millipore, Darmstadt, Germany) on non-coated tissue culture plates.
Chemical mutagenesis was performed as previously described (Horn et al., 2011). In brief, AN3-12 cells were transferred to 15 ml tubes, incubated with 0.1 mg/ml ENU for two hours at room temperature, washed five times with LIF-free medium, and plated on culture dishes. The cells were selected with 25 nM Bortezomib (Selleckchem, Houston, Tex.) for three weeks, starting 24 h after mutagenesis. Resistant clones were transferred to 24-well plates and the Psmb5 locus was analyzed. DNA was extracted (DNA extraction solution, Epicentre, Biotechnologies, Madison, Wis.) and exon 2 or exon 3 of the Psmb5 genewere specifically amplified by PCR using the primers msPSMB5exon2_fwd ([…]), msPSMB5exon2_rev ([…]), msPSMB5exon3_fwd ([…]), and msPSMB5exon3_rev ([…]). The used PSMB5 transcript is PSMB5-202, transcript identification ID ENST00000361611.11, coding sequence: CCDS9584, as available on Ensemble Biomart database. Sanger sequencing was performed at Eurofins Genomics GmbH (Ebersberg, Germany).
(§1) Cell viability was analyzed using the XTT cell proliferation Kit II (Roche Diagnostics, Basel, Switzerland) according to the manufacturer's instructions. Drug treatment was started 24 h after cell seeding. The absorbance was measured after 72 h of treatment and normalized to the respective untreated control cells.
For orientation: Tetrazolium dyes change colour on reduction, which living cells bring about.

Test [2] relates to KMS-18 T21A mutant cell line. Kind of test: XTT viability assay of KMS-18 multiple myeloma cell line with spontaneous PSMB5 T21A substitution. It counts as cell-based, human. As to conditions: KMS-18 T21A mutant cells, heterozygous. On the procedure: as §1
KMS-18 and KMS-27 cells, having a wild type PSMB5 locus, were subjected to a 4-week selection on bortezomib without the use of mutagens.
Resistance of these two mutant cell lines to the different proteasome inhibitors was investigated using the XTT viability assay.

Setting [3] is: T21 substitutions, 15 nM carfilzomib or 75 nM oprozomib.

The results in this text go back to patent publication US20220145396A1, “METHOD OF IDENTIFYING PATIENTS WITH BORTEZOMIB RESISTANT MULTIPLE MYELOMA AND OTHER BLOOD DISEASES” (Max-Planck-Gesellschaft zur Förderung der Wissenschaften …, priority 2019, published 2022).

SMILES strings stand for the structures. Entries after “also recorded” stand apart in the source; their conditions may differ.

In the case of `CC(C)C[C@H](NC(=O)[C@H](Cc1ccccc1)NC(=O)c1cnccn1)B(O)O` [bortezomib, [(1R)-3-Methyl-1-[[(2S)-1-oxo-3-phenyl-2-[(pyrazinylcarbonyl)amino]propyl]amino]butyl]boronic acid], the “resistance of mutant cell lines compared to the wildtype control (viability assay)” value in test [1] (10 nM bortezomib, 72 h, identified Psmb5 mutant clones vs WT) is “up to 2 fold”. The “response in cell viability assay” value in test [1] (T21A substitution) is “resistance”. Besides, the “response in XTT viability assay” value in test [2] is given as “resistance”.
`CC(C)C[C@H](NC(=O)[C@H](CCc1ccccc1)NC(=O)CN1CCOCC1)C(=O)N[C@@H](Cc1ccccc1)C(=O)N[C@@H](CC(C)C)C(=O)[C@@]1(C)CO1` [carfilzomib]: the “resistance in cell viability assay” value in test [1] (15 nM carfilzomib, the different mutants) is reported as “varying degrees of resistance; also recorded: highly variable”. In addition, the “response in cell viability assay” value in test [1] (T21A substitution) was “hypersensitive”; in test [1] (setting [3]), “hypersensitivity”. In test [1] (substitutions in positions C63, S130, or Y169), the “response in cell viability assay (clustering, FIG. 12)” value is recorded as “partially maintained response”. The “response in XTT viability assay” value in test [2] is reported as “sensitive”.
As to `CC(C)C[C@H](NC(=O)CNC(=O)c1cc(Cl)ccc1Cl)B(O)O` [ixazomib], the “resistance in cell viability assay” value in test [1] (50 nM ixazomib, all bortezomib resistant PSMB5 mutant cell lines) was “resistant”. The “response in cell viability assay” value in test [1] (T21A substitution) was “resistance”. Moreover, the “response in XTT viability assay” value in test [2] is “resistance”.
As for `COC[C@H](NC(=O)c1cnc(C)s1)C(=O)N[C@@H](COC)C(=O)N[C@@H](Cc1ccccc1)C(=O)[C@@]1(C)CO1` [oprozomib], the “resistance in cell viability assay” value in test [1] (75 nM oprozomib, the different mutants) is on record as “varying degrees of resistance; also recorded: highly variable”. The “response in cell viability assay” value in test [1] (T21A substitution) was “hypersensitive”; in test [1] (setting [3]), “hypersensitivity”. Besides, in test [2], the “response in XTT viability assay” value is “sensitive”.
